Reference: article PMC3473092 (Science (New York, N.Y.), 2011)
“Also recorded” adds a separate entry of the source. Read-outs that look alike come from different tables or passages of the source.

Columns and labels:
P. yoelii EEF = experiment: P. yoelii liver-stage; assay type: cell-based, Plasmodium yoelii; settings: for activity against EEFs (in words): P. yoelii liver assay; for IC50: Plasmodium yoelii, 48 h, read-out: P. yoelii EEF IC50; for efficacy when compound added 15 and 27 hours post-invasion: end-point 51 hpi, Fig. 2C; for Median parasite area: ±SD, DMSO control 160 to 180 μm^2, smallest size detected 9 μm^2
HepG2-A16-CD81EGFP cells = experiment: HepG2-A16-CD81EGFP inhibition; assay type: cell-based; settings: Homo sapiens, HepG2, read-out: HepG2 inhibition IC50
[1] = system: P. falciparum W2 parasites; experiment: Blood-stage SYBR green assay, P. falciparum W2; assay type: cell-based; settings: Plasmodium falciparum, W2, read-out: Blood IC50
P. berghei sporozoites = experiment: Rodent malaria model of causal prophylactic treatment; assay type: in vivo, Plasmodium berghei; settings: for blood stage parasitemia in later blood smear examinations / in vivo bioluminescence signal of developing parasite: GNF179 15 mg/kg, atovaquone 2.5 mg/kg, treated at 6 hpi, Fig. 2D
Plasmodium berghei [2] = experiment: P. berghei blood-stage mouse model, single oral dose; assay type: in vivo; settings: for average survival times: mice infected with P. berghei, single oral dose at 100 mg/kg
[3] = system: P. falciparum blood stages; experiment: P. falciparum blood stage cultures in vitro; assay type: cell-based, Plasmodium falciparum; settings: text b23, strain not given
Plasmodium berghei [4] = settings: 100 mg/kg oral dose; cited from earlier work
[5] = system: parasite protein biosynthesis; experiment: Parasite protein biosynthesis inhibition; assay type: cell-based; settings: Fig. S4
[6] = system: strains having mutations making them resistant to atovaquone and pyrimethamine; experiment: Cross-resistance with strains resistant to liver-stage drugs; assay type: cell-based; settings: Table S6
[7] = mouse
[8] = mouse, in vivo, po
[9] = 15 p.o. mg/kg, 1–3 hours prior to sporozoite injection
[10] = 30 p.o. mg/kg, 1–3 hours prior to sporozoite injection
[11] = 5 p.o. mg/kg, 1–3 hours prior to sporozoite injection
[12] = 15 p.o. mg/kg, six hours after infection

With `C[C@@H]1CC[C@H]2[C@@H](C)C(=O)O[C@@H]3O[C@@]4(C)CC[C@@H]1[C@]32OO4` [Artemisinin] the “activity against EEFs (in words)” value (P. yoelii EEF) was “inactive”, the IC50 (P. yoelii EEF) was over 10000 nM and the IC50 (HepG2-A16-CD81EGFP cells) was over 10000 nM. The IC50 [1] was 3.3 ± 0.4 nM.

With `O=C1C(O)=C([C@H]2CC[C@H](c3ccc(Cl)cc3)CC2)C(=O)c2ccccc21` [Atovaquone] the “efficacy when compound added 15 and 27 hours post-invasion” value (from here on “efficacy”) (P. yoelii EEF; 1 μM) was “remained active later in EEF development”, the Median parasite area (P. yoelii EEF; 1 μM) was 18.2±1.0 μm^2 and the Median parasite area (P. yoelii EEF; 10 μM) was 18.6±1.0 μm^2. The “activity against EEFs (in words)” value (P. yoelii EEF) was “confirmed as active”, the IC50 (P. yoelii EEF) was 9.4 ± 15 nM and the IC50 (HepG2-A16-CD81EGFP cells) was 9500 ± 2500 nM. The IC50 [1] was 2.2 ± 0.4 nM, the “Average Survival (%)” value (P. berghei sporozoites; 2.5 p.o. mg/kg, 1–3 hours prior to sporozoite injection) was 100% and the “Average Survival (%)” value (P. berghei sporozoites; 2.5 p.o. mg/kg, six hours after infection) was 100%. For the same compound, the “blood stage parasitemia in later blood smear examinations” value (P. berghei sporozoites) was “no blood stage parasitemia was detected” and the “in vivo bioluminescence signal of developing parasite” value (P. berghei sporozoites) was “No luminescence signal was detected”.

With `COc1ccc2cc3[n+](cc2c1OC)CCc1cc2c(cc1-3)OCO2` [Berberine] the Median parasite area (P. yoelii EEF; 1 μM) was 46.4±7.0 μm^2, the Median parasite area (P. yoelii EEF; 10 μM) was 22.4±2.3 μm^2 and the “activity against EEFs (in words)” value (P. yoelii EEF) was “confirmed as active”. For the same compound, the IC50 (P. yoelii EEF) was 224 ± 152 nM, the IC50 (HepG2-A16-CD81EGFP cells) was 2600 ± 500 nM and the IC50 [1] was 117 ± 9 nM.

In the case of `CCN(CC)CCCC(C)Nc1ccnc2cc(Cl)ccc12` (stereo not shown) [Chloroquine], the Median parasite area (P. yoelii EEF; 1 μM) is reported as 65.4±9.5 μm^2, the Median parasite area (P. yoelii EEF; 10 μM) is reported as under 9 μm^2 and the IC50 (P. yoelii EEF) is reported as 1650 nM. For the same compound, the IC50 (HepG2-A16-CD81EGFP cells) was 1600 ± 300 nM, the IC50 [1] was 84 ± 3 nM and the average survival times (Plasmodium berghei [2]) was 12.5 days.

Work on `C[C@@H]1C[C@@H]([C@H](O)CC2CC(=O)NC(=O)C2)C(=O)[C@@H](C)C1` [Cycloheximide] yielded a Median parasite area (P. yoelii EEF; 1 μM) of under 9 μm^2, a Median parasite area (P. yoelii EEF; 10 μM) of under 9 μm^2 and an IC50 (HepG2-A16-CD81EGFP cells) of 220 ± 100 nM. It also gave an IC50 [1] of 366 ± 69 nM.

In the case of `CCCCCCCCCCOc1cc2c(O)c(C(=O)OCC)cnc2cc1OCC` [Decoquinate], the Median parasite area (P. yoelii EEF; 1 μM) is reported as 17.7±0.3 μm^2, the Median parasite area (P. yoelii EEF; 10 μM) is reported as 18.8±4.7 μm^2 and the IC50 (P. yoelii EEF) is reported as 0.16 ± 0.02 nM. For the same compound, the IC50 (HepG2-A16-CD81EGFP cells) was over 10000 nM and the IC50 [1] was 0.25 ± 0.06 nM.

For `CC[C@@H](C(=O)[C@@H](C)[C@@H](O)[C@H](C)CCc1ccc(C)c(O)c1C(=O)O)[C@H]1O[C@](CC)([C@H]2CC[C@](O)(CC)[C@H](C)O2)C[C@@H]1C` [Lasalocid], the “efficacy” value (P. yoelii EEF; 1 μM) was “remained active later in EEF development”, the Median parasite area (P. yoelii EEF; 1 μM) was under 9 μm^2 and the Median parasite area (P. yoelii EEF; 10 μM) was under 9 μm^2. For the same compound, the “activity against EEFs (in words)” value (P. yoelii EEF) was “confirmed as active”, the IC50 (P. yoelii EEF) was 37 ± 20 nM and the IC50 (HepG2-A16-CD81EGFP cells) was 3900 ± 1400 nM. It also gave an IC50 [1] of 50 ± 8 nM.

For `OC(c1cc(C(F)(F)F)nc2c(C(F)(F)F)cccc12)C1CCCCN1` (stereo not shown) [Mefloquine], the Median parasite area (P. yoelii EEF; 1 μM) was 65.4±4.7 μm^2, the Median parasite area (P. yoelii EEF; 10 μM) was under 9 μm^2 and the “activity against EEFs (in words)” value (P. yoelii EEF) was “marginal activity”. It also gave an IC50 (P. yoelii EEF) of 3270 nM, an IC50 (HepG2-A16-CD81EGFP cells) of 3100 ± 600 nM and an IC50 [1] of 9.5 ± 10 nM.

In the case of `C[C@H]1Cc2c([nH]c3cc(Cl)c(F)cc23)[C@@]2(N1)C(=O)Nc1ccc(Cl)cc12` [NITD609], the “activity against EEFs (in words)” value (P. yoelii EEF) is reported as “inactive”, the “Average Survival (%)” value (P. berghei sporozoites; [9]) is reported as 0% and the “Prepatent Period” value (P. berghei sporozoites; [9]) is reported as 4.5 days. The “Average Survival (%)” value (P. berghei sporozoites; [10]) was 0%, the “Prepatent Period” value (P. berghei sporozoites; [10]) was 4.2 days and the “potency against P. falciparum blood stages” value [3] was ~ 1 nM. The “cure in a blood-stage animal model” value (Plasmodium berghei [4]) was “fully curative”.

For `CO[C@@H]1C(=O)CC[C@]2(CO2)[C@@]1(O)[C@@]1(C)O[C@@H]1CC=C(C)C` [Ovalicin], the Median parasite area (P. yoelii EEF; 1 μM) was 35.1±3.1 μm^2, the Median parasite area (P. yoelii EEF; 10 μM) was 19.1±0.9 μm^2 and the “effect on the infection ratio” value (P. yoelii EEF; Fig. 1E) was “no drug effect is seen; also recorded: no measurable effect”. For the same compound, the “activity against EEFs (in words)” value (P. yoelii EEF) was “confirmed as active”, the IC50 (P. yoelii EEF) was 0.7 ± 0.3 nM and the IC50 (HepG2-A16-CD81EGFP cells) was over 10000 nM. For the same compound, the IC50 [1] was over 10000 nM.

In the case of `COc1cc(NC(C)CCCN)c2ncccc2c1` (stereo not shown) [Primaquine], the Median parasite area (P. yoelii EEF; 1 μM) is reported as 56.8±15.6 μm^2, the Median parasite area (P. yoelii EEF; 10 μM) is reported as under 9 μm^2 and the “activity against EEFs (in words)” value (P. yoelii EEF) is reported as “confirmed as active”. The IC50 (P. yoelii EEF) was 1160 nM, the IC50 (HepG2-A16-CD81EGFP cells) was 6100 ± 1900 nM and the IC50 [1] was 317 ± 60 nM.

For `CCc1nc(N)nc(N)c1-c1ccc(Cl)cc1` [Pyrimethamine], the “efficacy” value (P. yoelii EEF; 1 μM) was “the parasites grew to normal size”, the Median parasite area (P. yoelii EEF; 1 μM) was 31.1±0.7 μm^2 and the Median parasite area (P. yoelii EEF; 10 μM) was 29.6±2.0 μm^2. For the same compound, the “activity against EEFs (in words)” value (P. yoelii EEF) was “confirmed as active”, the IC50 (P. yoelii EEF) was 2.4 ± 1.6 nM and the IC50 (HepG2-A16-CD81EGFP cells) was 6300 ± 3300 nM. The IC50 [1] was 15 ± 2 nM.

Compound `C[C@H]1[C@H](OC(=O)CCC(=O)O)O[C@@H]2O[C@@]3(C)CC[C@H]4[C@H](C)CC[C@@H]1[C@@]24OO3` [artesunate] has an average survival times (Plasmodium berghei [2]) of 7 days.

In the case of GNF179, the “efficacy” value (P. yoelii EEF; 1 μM) is reported as “remained active later in EEF development”, the “mouse survival prolonged by an average of” value (Plasmodium berghei [2]; single 100 mg/kg oral dose) is reported as 19 days and the “reduction of Plasmodium berghei parasitemia levels” value (Plasmodium berghei [2]; single 100 mg/kg oral dose, mice) is reported as 99.7%. The “Average Survival (%)” value (P. berghei sporozoites; [11]) was 20%, the “Prepatent Period” value (P. berghei sporozoites; [11]) was 4.2 days and the “Average Survival (%)” value (P. berghei sporozoites; [9]) was 100%. The “Average Survival (%)” value (P. berghei sporozoites; [12]) was 80%, the “Prepatent Period” value (P. berghei sporozoites; [12]) was 6.2 days and the “Average Survival (%)” value (P. berghei sporozoites; 20 p.o. mg/kg, 1–3 hours prior to sporozoite injection) was 100%. For the same compound, the “blood stage parasitemia in later blood smear examinations” value (P. berghei sporozoites) was “no blood stage parasitemia was detected”, the “in vivo bioluminescence signal of developing parasite” value (P. berghei sporozoites) was “No luminescence signal was detected” and the “potency against P. falciparum blood stages” value [3] was 7 nM. For the same compound, the “inhibition of parasite protein biosynthesis” value [5] was “does not rapidly inhibit parasite protein biosynthesis”, the cross-resistance [6] was “no cross-resistance” and the “clearance CL” value ([7]; in vivo) was 22 mL/min/kg. For the same compound, the “clearance as share of hepatic blood flow in mice” value ([7]; in vivo) was ~ 25%, the “residence time MRT” value ([7]; in vivo) was 9 h and the “steady-state volume of distribution Vss” value ([7]; in vivo) was 11.8 L/kg. For the same compound, the “terminal half-life t1/2” value ([7]; in vivo) was 8.9 h, the “in vivo oral bioavailability” value ([7]; po) was 58% and the Cmax ([8]; 15 mg/kg) was 55 µM. It also gave a Cmax ([8]; 100 mg/kg) of 193 µM and a half-life in liver ([8]; 100 mg/kg) of 7 to 9 h.
